These results are taken from patent US11084814B2, “Pyrido[3, 4-d]pyrimidine derivative and pharmaceutically acceptable salt thereof” (Teijin Pharma Limited, priority 2016, dated 2021).

For one test, the target named is T1, CDK4/cyclin D3 (Homo sapiens, UniProt P11802).
T1 construct: purchased Carna Biosciences, Inc. QS S Assist CDK4/Cyclin D3_FP Kit
Kind of test: Human CDK4/cyclin D3 inhibitory activity (QS S Assist CDK4/Cyclin D3_FP Kit, IMAP fluorescent polarization). To be noted: read-out: CDK4 Activity symbol. The test is classed as biochemical. The essentials:
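Kinase reactions used kit CDK4/cyclin D3 at 12.5–25 ng/well with the kit ATP/substrate/metal mix in 20 mM HEPES (pH 7.4), 0.01% Tween20 and 2 mM DTT, run 45 min at room temperature. Phosphorylation was detected by IMAP fluorescence polarization (ex 485/em 535 nm) after 30 min binding in the dark. IC50 was fitted from percent inhibition against DMSO controls with and without enzyme.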

Another test addresses T2, CDK2/cyclin A2 (Homo sapiens, UniProt P24941).
T2 construct: purchased Carna Biosciences, Inc. QS S Assist CDK2/Cyclin A2_FP Kit
Kind of test: Human CDK2/cyclin A2 inhibitory activity (QS S Assist CDK2/Cyclin A2_FP Kit, IMAP fluorescent polarization). The test is classed as biochemical. The settings on record: read-out: CDK2 Activity symbol. The essentials:
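Kit CDK2/cyclin A2 (2.5 ng/well) was reacted with kit ATP/substrate/metal in 20 mM HEPES pH 7.4, 0.01% Tween 20 and 2 mM DTT for 60 min at room temperature. IMAP binding reagent was added for 30 min, then fluorescence polarization was read at 485/535 nm. IC50 came from dose-response fitting of percent inhibition.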

Where only a bound is given, the exact number is not on record here.

T1 sequence (P11802 whole entry): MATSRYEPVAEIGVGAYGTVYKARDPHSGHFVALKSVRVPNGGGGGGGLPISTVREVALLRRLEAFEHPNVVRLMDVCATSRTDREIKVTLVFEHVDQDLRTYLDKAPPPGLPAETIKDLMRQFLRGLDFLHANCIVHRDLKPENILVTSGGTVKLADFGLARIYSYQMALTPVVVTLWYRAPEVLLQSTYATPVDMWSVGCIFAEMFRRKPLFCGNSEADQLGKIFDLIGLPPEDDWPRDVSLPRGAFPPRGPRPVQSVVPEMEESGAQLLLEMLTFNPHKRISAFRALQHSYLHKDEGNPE
T1 sequence (P30281 whole entry partner): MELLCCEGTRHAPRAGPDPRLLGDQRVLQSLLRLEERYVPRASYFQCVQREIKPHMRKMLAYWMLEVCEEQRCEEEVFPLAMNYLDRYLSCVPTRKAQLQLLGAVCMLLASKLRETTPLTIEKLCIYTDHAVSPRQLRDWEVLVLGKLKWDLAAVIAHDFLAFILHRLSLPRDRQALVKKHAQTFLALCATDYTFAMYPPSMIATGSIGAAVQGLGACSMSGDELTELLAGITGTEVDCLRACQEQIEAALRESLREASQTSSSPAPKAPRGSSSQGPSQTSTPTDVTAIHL

On to `CN(C)CCN1CCc2nc(Nc3ncc4cc(CCO)nc(N5CCCCC5)c4n3)ccc2C1` [Compound 110], for which the values for the IC50 on CDK4/cyclin D3 and at CDK2/cyclin A2 were < 10 nM and ≥ 100 nM, respectively.

Take `C[C@@H](O)c1cc2cnc(Nc3ccc4c(n3)CCN(CCO)C4)nc2c(N2CCCCC2)n1` [Compound 111]: the IC50 on CDK4/cyclin D3 was < 10 nM; on CDK2/cyclin A2 it was ≥ 100 nM.

Consider `C[C@@H](O)c1cc2cnc(Nc3ccc4c(n3)CCN(CCO)C4)nc2c(N2CCC(F)CC2)n1` [Compound 112], for which the results for the IC50 at CDK4/cyclin D3 and at CDK2/cyclin A2 were < 10 nM and ≥ 100 nM, respectively.

For the molecule `CC(O)c1cc2cnc(Nc3ccc(CN4CCN(CCO)CC4)cn3)nc2c(N2CC(C)C(C)C2)n1` (stereo not drawn) [Compound 113], the IC50 on CDK4/cyclin D3 is < 10 nM; at CDK2/cyclin A2, ≥ 100 nM.

`C[C@@H](O)c1cc2cnc(Nc3ccc(N4CCN(CCS(C)(=O)=O)CC4)nn3)nc2c(N2CCCCC2)n1` [Compound 114, (R)-1-(2-((6-(4-(2-(methylsulfonyl)ethyl)piperazin-1-yl)pyridazin-3-yl)amino)-8-(piperidin-1-yl)pyrido[3,4-d]pyrimidin-6-yl)ethanol]: the IC50 on CDK4/cyclin D3 was < 10 nM; on CDK2/cyclin A2, ≥ 100 nM.

Regarding `C[C@@H](O)c1cc2cnc(Nc3ccc(CN4CCN(C)CC4)cn3)nc2c(N2CCC(F)CC2)n1` [Compound 115], the figures for the IC50 at CDK4/cyclin D3 and at CDK2/cyclin A2 were < 10 nM and ≥ 100 nM, respectively.

Take `C[C@@H](O)c1cc2cnc(Nc3ccc(CN4CCN(C)CC4)cn3)nc2c(N2CC[C@@H](F)C2)n1` [Compound 116]: the IC50 on CDK4/cyclin D3 was < 10 nM; at CDK2/cyclin A2, ≥ 100 nM.

Turning to `C[C@@H](O)c1cc2cnc(Nc3ccc(CN4CCN(C)CC4)cn3)nc2c(N2CC[C@H](F)C2)n1` [Compound 117], the IC50 at CDK4/cyclin D3 was < 10 nM; on CDK2/cyclin A2 it was ≥ 100 nM.

`CO[C@H](C)c1cc2cnc(Nc3ccc(N4CCNCC4)nn3)nc2c(N2CCCCC2)n1` [Compound 118]: the results for the IC50 on CDK4/cyclin D3 and on CDK2/cyclin A2 were < 10 nM and ≥ 100 nM, respectively.

As to `CO[C@H](C)c1cc2cnc(Nc3ccc(CN4CCNCC4)cn3)nc2c(N2CCCCC2)n1` [Compound 119], the IC50 on CDK4/cyclin D3 is < 10 nM; at CDK2/cyclin A2, ≥ 100 nM.

Regarding `C[C@@H](O)c1cc2cnc(Nc3ccc(N4CCN(C)CCC4=O)cn3)nc2c(N2CCCC2)n1` [Compound 120], the IC50 at CDK4/cyclin D3 was < 10 nM; at CDK2/cyclin A2, ≥ 100 nM.

Turning to `C[C@@H](O)c1cc2cnc(Nc3ccc(N4CCN(C)CCC4=O)cn3)nc2c(N2CCCCC2)n1` [Compound 121], the IC50 is < 10 nM at CDK4/cyclin D3 and ≥ 100 nM at CDK2/cyclin A2.

Turning to `CCN1CCN(Cc2ccc(Nc3ncc4cc([C@@H](C)O)nc(N5CCCCC5)c4n3)nc2)CC1` [Compound 122], the figures for the IC50 at CDK4/cyclin D3 and on CDK2/cyclin A2 were < 10 nM and ≥ 100 nM, respectively.

As for `C[C@@H](O)c1cc2cnc(Nc3ccc(N4CCN(C)CC4)nn3)nc2c(N2CCCCC2)n1` [Compound 123, (R)-1-(2-((6-(4-methylpiperazin-1-yl)pyridazin-3-yl)amino)-8-(piperidin-1-yl)pyrido[3,4-d]pyrimidin-6-yl)ethanol], the results for the IC50 on CDK4/cyclin D3 and on CDK2/cyclin A2 were < 10 nM and ≥ 100 nM, respectively.

As for `C[C@@H](O)c1cc2cnc(Nc3ccc(N4CCN(C)CC4)nn3)nc2c(N2CCC(F)CC2)n1` [Compound 124], the IC50 at CDK4/cyclin D3 is < 10 nM; at CDK2/cyclin A2, ≥ 100 nM.

With `CO[C@H](C)c1cc2cnc(Nc3ccc(N4CCN(C)CC4)nn3)nc2c(N2CCC(F)CC2)n1` [Compound 125], the figures for the IC50 at CDK4/cyclin D3 and at CDK2/cyclin A2 were 10 to 100 nM and ≥ 100 nM, respectively.

For `CO[C@H](C)c1cc2cnc(Nc3ccc(N4CCNCC4)nn3)nc2c(N2CCC(F)CC2)n1` [Compound 126], the IC50 on CDK4/cyclin D3 is < 10 nM; at CDK2/cyclin A2, ≥ 100 nM.

For `C[C@@H](O)c1cc2cnc(Nc3ccc(N4CCCNCC4=O)cn3)nc2c(N2CCCCC2)n1` [Compound 127], the values for the IC50 at CDK4/cyclin D3 and at CDK2/cyclin A2 were < 10 nM and ≥ 100 nM, respectively.

Turning to `OCCN1CCN(Cc2ccc(Nc3ncc4cc(C(F)F)nc(N5CCCCC5)c4n3)nc2)CC1` [Compound 128], the IC50 was < 10 nM at CDK4/cyclin D3 and ≥ 100 nM on CDK2/cyclin A2.

Take `OCCN1CCN(Cc2ccc(Nc3ncc4cc(C(F)F)nc(N5CCC(O)CC5)c4n3)nc2)CC1` [Compound 129]: the IC50 was < 10 nM on CDK4/cyclin D3 and ≥ 100 nM on CDK2/cyclin A2.

Consider `C[C@@H](O)c1cc2cnc(Nc3ccc4c(n3)CCN(CCCO)C4)nc2c(N2CCCCC2)n1` [Compound 130], for which the figures for the IC50 on CDK4/cyclin D3 and at CDK2/cyclin A2 were < 10 nM and ≥ 100 nM, respectively.

Take `C[C@@H](O)c1cc2cnc(Nc3ccc(O[C@H]4CCN(CCO)C[C@@H]4F)cn3)nc2c(N2CCCCC2)n1` [Compound 131]: the IC50 was 10 to 100 nM at CDK4/cyclin D3 and ≥ 100 nM at CDK2/cyclin A2.

Regarding `C[C@@H](O)c1cc2cnc(Nc3ccc(O[C@@H]4CCN(CCO)C[C@@H]4F)cn3)nc2c(N2CCCCC2)n1` [Compound 132], the IC50 is < 10 nM at CDK4/cyclin D3 and ≥ 100 nM at CDK2/cyclin A2.

For the molecule `C[C@@H](O)c1cc2cnc(Nc3ccc(CN4CCN(C)CC4)cn3)nc2c(N2CC(F)(F)C2)n1` [Compound 133], the IC50 on CDK4/cyclin D3 is 10 to 100 nM; at CDK2/cyclin A2 it was ≥ 100 nM.

On to `OCCN1CCc2nc(Nc3ncc4cc(CO)nc(N5CCCCC5)c4n3)ccc2C1` [Compound 135], for which the IC50 on CDK4/cyclin D3 was < 10 nM; at CDK2/cyclin A2, ≥ 100 nM.

Consider `CC(O)c1cc2cnc(Nc3ccc(CN4CCN(C)CC4)cn3)nc2c(N2CCCC2C)n1` (stereo not drawn) [Compound 136], for which the results for the IC50 on CDK4/cyclin D3 and on CDK2/cyclin A2 were < 10 nM and ≥ 100 nM, respectively.

With `C[C@@H](O)c1cc2cnc(Nc3ccc(CN4CCN(C)CC4)cn3)nc2c(N2CCC[C@@H]2C)n1` [Compound 137], the IC50 on CDK4/cyclin D3 was 10 to 100 nM; at CDK2/cyclin A2 it was ≥ 100 nM.

In the case of `C[C@@H]1CCN(c2nc([C@@H](C)O)cc3cnc(Nc4ccc(CN5CCN(C)CC5)cn4)nc23)C1` [Compound 138], the IC50 at CDK4/cyclin D3 is < 10 nM; on CDK2/cyclin A2, ≥ 100 nM.

As to `C[C@H]1CCN(c2nc([C@@H](C)O)cc3cnc(Nc4ccc(CN5CCN(C)CC5)cn4)nc23)C1` [Compound 139], the IC50 on CDK4/cyclin D3 is < 10 nM; on CDK2/cyclin A2 it was ≥ 100 nM.

`CC1CCC(C)N1c1nc([C@@H](C)O)cc2cnc(Nc3ccc(CN4CCN(C)CC4)cn3)nc12` (stereo partly drawn) [Compound 140]: the IC50 was < 10 nM at CDK4/cyclin D3 and ≥ 100 nM on CDK2/cyclin A2.

Consider `CC1CN(c2nc([C@@H](C)O)cc3cnc(Nc4ccc(CN5CCN(C)CC5)cn4)nc23)CC1C` (stereo partly drawn) [Compound 141], for which the IC50 on CDK4/cyclin D3 is < 10 nM; on CDK2/cyclin A2, ≥ 100 nM.

As for `C[C@@H](O)c1cc2cnc(Nc3ccc(CN4CCN(C)CC4)cn3)nc2c(N2CCC(C)(C)C2)n1` [Compound 142], the results for the IC50 at CDK4/cyclin D3 and on CDK2/cyclin A2 were < 10 nM and ≥ 100 nM, respectively.

As to `C[C@@H](O)c1cc2cnc(Nc3ccc(CN4CCN(C)CC4)cn3)nc2c(N2C3CCC2CC3)n1` [Compound 143], the IC50 on CDK4/cyclin D3 is < 10 nM; at CDK2/cyclin A2, ≥ 100 nM.

Regarding `C[C@@H](O)c1cc2cnc(Nc3ccc(CN4CCN(C)CC4)cn3)nc2c(N2CCC(C(F)(F)F)CC2)n1` [Compound 144], the IC50 is < 10 nM on CDK4/cyclin D3 and ≥ 100 nM at CDK2/cyclin A2.

`C[C@@H](O)c1cc2cnc(Nc3ccc(CN4CCN(C)CC4)cn3)nc2c(N2CCOCC2)n1` [Compound 145]: the IC50 at CDK4/cyclin D3 is 10 to 100 nM; at CDK2/cyclin A2, ≥ 100 nM.

For the molecule `CCC(O)c1cc2cnc(Nc3ccc(CN4CCN(C)CC4)cn3)nc2c(N2CCCCC2)n1` (stereo not drawn) [Compound 146], the IC50 at CDK4/cyclin D3 is < 10 nM; on CDK2/cyclin A2 it was ≥ 100 nM.

`C[C@@H](O)c1cc2cnc(Nc3ccc4c(n3)CCN(C(=O)C3CCNCC3)C4)nc2c(N2CCCCC2)n1` [Compound 147]: the IC50 at CDK4/cyclin D3 is < 10 nM; on CDK2/cyclin A2, ≥ 100 nM.

Consider `C[C@@H](O)c1cc2cnc(Nc3ccc4c(n3)CCN(C(=O)C3CCN(CCO)CC3)C4)nc2c(N2CCCCC2)n1` [Compound 148], for which the IC50 on CDK4/cyclin D3 is < 10 nM; on CDK2/cyclin A2, ≥ 100 nM.

`C[C@@H](O)c1cc2cnc(Nc3ccc4c(n3)CCN(C(=O)C3CCN(C)CC3)C4)nc2c(N2CCCCC2)n1` [Compound 149]: the results for the IC50 at CDK4/cyclin D3 and on CDK2/cyclin A2 were < 10 nM and ≥ 100 nM, respectively.

Turning to `C[C@@H](O)c1cc2cnc(Nc3ccc(CN4CCN(C)CC4)cn3)nc2c(N2CCC(F)(F)CC2)n1` [Compound 150], the IC50 at CDK4/cyclin D3 was < 10 nM; on CDK2/cyclin A2, ≥ 100 nM.

Take `C[C@@H](O)c1cc2cnc(Nc3ccc(N4CCN(CCO)CCC4=O)cn3)nc2c(N2CCCCC2)n1` [Compound 151]: the IC50 on CDK4/cyclin D3 was < 10 nM; at CDK2/cyclin A2 it was ≥ 100 nM.

As to `CC(O)c1cc2cnc(Nc3ccc(CN4CCN(C)CC4C)cn3)nc2c(N2CCCCC2)n1` (stereo not drawn) [Compound 152], the IC50 was < 10 nM on CDK4/cyclin D3 and ≥ 100 nM on CDK2/cyclin A2.

Consider `C[C@@H](O)c1cc2cnc(Nc3ccc(CN4CCNCC4)cn3)nc2c(N2CCCCC2)n1` [Compound 155], for which the IC50 is < 10 nM on CDK4/cyclin D3 and ≥ 100 nM at CDK2/cyclin A2.

`C[C@@H](O)c1cc2cnc(Nc3ccc(CN4CCN(CCO)CC4)cn3)nc2c(C2=CCCCC2)n1` [Compound 156]: the IC50 is < 10 nM at CDK4/cyclin D3 and ≥ 100 nM on CDK2/cyclin A2.

For the molecule `CC(O)c1cc2cnc(Nc3ccc(CN4CCN(C)CC4)cn3)nc2c(N2CC3CC3C2)n1` (stereo not drawn) [Compound 157], the IC50 on CDK4/cyclin D3 is < 10 nM; on CDK2/cyclin A2 it was ≥ 100 nM.

`C[C@@H](O)c1cc2cnc(Nc3ccc(CN4CCN(C)CC4)cn3)nc2c(N2CCCCCC2)n1` [Compound 158]: the values for the IC50 at CDK4/cyclin D3 and on CDK2/cyclin A2 were < 10 nM and ≥ 100 nM, respectively.

In the case of `CC[C@@H](O)c1cc2cnc(Nc3ccc(CN4CCN(CCO)CC4)cn3)nc2c(N2CCCCC2)n1` [Compound 159], the IC50 was 10 to 100 nM on CDK4/cyclin D3 and ≥ 100 nM at CDK2/cyclin A2.

Regarding `CC[C@H](O)c1cc2cnc(Nc3ccc(CN4CCN(CCO)CC4)cn3)nc2c(N2CCCCC2)n1` [Compound 160], the IC50 on CDK4/cyclin D3 was < 10 nM; on CDK2/cyclin A2, ≥ 100 nM.
